Measurements reported in patent US20220401404A1, “Co-Administration Therapy to Prevent Neurodegeneration and Enhance Neuroprotection” (THE REGENTS OF THE UNIVERSITY OF CALIFORNIA, priority 2019, published 2022).
Several values for one entry are separate records, joined by “and”; a condition that tells them apart may be missing. Identical values can stand only once. Like-named read-outs stand apart in the source and are kept apart here. Each block holds one molecule with its values, some of them ahead of it.

Tests used:
[1] = biological target: pooled human liver microsomes (HLM); assay: Inhibition of fenofibrate hydrolysis in pooled human liver microsomes (Ki); format: in vitro ADME; conditions: matrix HLM, substrate fenofibrate
Description: (§1) FIGS. 6A-6D. […] The reaction was stopped, supernatant collected and fenofibric acid level was determined by LC-MS/MS. Ki values were calculated, and the type of inhibition was determined by fitting data to enzyme inhibition models: competitive (FIG. 6A), non-competitive (FIG. 6B), uncompetitive (FIG. 6C) and mixed (FIG. 6D) models. The samples were analyzed in duplicates and represented as mean values.
(§2) Incubation mixtures containing 100 mM Tris-Cl buffer (pH 7.4), recombinant hCES1b (0.05 mg/mL) or pooled human liver microsomes (1 mg/mL) and 8 concentrations of kaempferol or a positive control inhibitor (bis(4-nitrophenyl)-phosphate, BNP) were pre-incubated for 2 minutes at 37° C. […] The reactions were stopped by the addition of a stop solution containing an internal standard. Samples were centrifuged to precipitate protein and the supernatant was collected for LC-MS/MS analysis. The fenofibric acid was quantified using standard curves. The Ki values were calculated, and the type of inhibition was determined by fitting data to specific enzyme inhibition models (Table 2).

[2] = biological target: T1, recombinant hCES1b (Homo sapiens, UniProt P23141); assay: Inhibition of hCES1b-mediated fenofibrate hydrolysis (Ki); format: biochemical; conditions: matrix hCES1b, substrate fenofibrate
T1 sequence (P23141 18-567): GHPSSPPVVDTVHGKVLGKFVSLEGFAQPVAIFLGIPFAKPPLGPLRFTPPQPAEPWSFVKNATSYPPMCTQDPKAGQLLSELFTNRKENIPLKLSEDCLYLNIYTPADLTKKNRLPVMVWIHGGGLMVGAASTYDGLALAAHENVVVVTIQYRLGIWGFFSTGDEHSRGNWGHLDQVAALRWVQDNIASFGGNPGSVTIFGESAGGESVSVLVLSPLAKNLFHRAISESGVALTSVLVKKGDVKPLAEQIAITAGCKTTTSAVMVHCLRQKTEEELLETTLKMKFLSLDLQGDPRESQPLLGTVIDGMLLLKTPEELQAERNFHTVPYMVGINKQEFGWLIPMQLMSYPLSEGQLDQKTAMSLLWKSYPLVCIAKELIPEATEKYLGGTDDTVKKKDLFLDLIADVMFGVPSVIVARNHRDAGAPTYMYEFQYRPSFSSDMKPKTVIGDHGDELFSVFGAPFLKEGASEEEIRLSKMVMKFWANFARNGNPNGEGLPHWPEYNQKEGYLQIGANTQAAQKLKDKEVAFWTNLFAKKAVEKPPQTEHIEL
Description: as §1, with “5A-5D.” for “6A-6D.”, “Reaction” for “The reaction”, “5A),” for “6A),”, “5B),” for “6B),”, “5C)” for “6C)”, “5D)” for “6D)”
as §2

[3] = Hydrolysis of fenofibrate to fenofibric acid by pooled human liver microsomes (Km, Vmax); conditions: pH 7.4
Description: FIGS. 8A and 8B. […] Reaction was stopped, supernatant collected and fenofibric acid level was determined by LC-MS/MS. […] The samples were analyzed in duplicates and represented as mean values.
The reactions were stopped by the addition of a stop solution containing an internal standard.

[4] = test system: primary astrocytes derived from PGC-1α heterozygous KO (PGC-1α+/−) mice; assay: LPS-induced inflammation in primary astrocytes from PGC-1α heterozygous KO mice (RT-PCR gene expression); format: cell-based, mouse
Description: (§3) Total RNA was isolated and IL-1β (A, D), TNF-α (B, E) and PGC-1α (C, F) gene expression were determined by RT-PCR.
(§4) Primary astrocytes from postnatal heterozygous mice were isolated and cultured and wild type mice were obtained by breeding these heterozygous knockout mice. […] Total RNA was isolated, and gene expression of pro-inflammatory cytokines, IL-1β and TNF-α, was determined by RT-PCR.

[5] = test system: BV2 cells; assay: LPS-induced IL-1β and PGC-1α gene expression in BV2 cells (qRT-PCR); format: cell-based; conditions: for reduction of LPS-induced IL-1β expression: then 0.1 ng/ml LPS 1 hour
Excerpt: FIG. 4. […] Then total RNA was isolated for IL-1β gene qRT-PCR analysis.
FIGS. 7A and 7B. […] Cell lysates were collected, and RNA was isolated for IL-1β (FIG. 7A) and PGC-1α (FIG. 7B) gene expression by RT-PCR.
Total BV2 cell RNA was extracted for IL-1β gene expression via qRT-PCR analysis.
Cell lysates were collected for determination of IL-1β and PGC-1α gene expression via qRT-PCR.

[6] = test system: primary astrocytes derived from PGC-1α WT (PGC-1α+/+) mice; assay: LPS-induced inflammation in primary astrocytes from PGC-1α WT mice (RT-PCR gene expression); format: cell-based, mouse; conditions: fenofibrate 20 μM overnight, then LPS 1 hour
Description: as §3, §4

[7] = substrate: CC(C)OC(=O)C(C)(C)Oc1ccc(C(=O)c2ccc(Cl)cc2)cc1; assay: cells, lysate or membranes named; format: biochemical, human; conditions: other: matrix hCES1b 0.05 mg/mL, product fenofibric acid, pH 7.4, 37° C.
Description: Reaction was stopped, supernatant collected and fenofibric acid level was determined by LC-MS/MS. Standard curve was plotted and the Km and Vmax values were calculated. The samples were analyzed in duplicates and represented as mean values.
Assay procedure: Incubation mixtures containing 100 mM Tris-Cl buffer (pH 7.4), and recombinant hCES1b (0.05 mg/mL) or pooled HLM (1 mg/mL) were warmed to 37° C. […] The reactions were stopped by the addition of a stop solution containing an internal standard. Samples were centrifuged to precipitate the protein while the supernatant was collected for determination of fenofibric acid using liquid chromatography-tandem mass spectrometry (LC-MS/MS) analysis. […] The Km and Vmax values were calculated by fitting data to enzyme kinetics models (Table 1).

[8] = read-out: Ki, Competitive inhibition model
[9] = read-out: Ki, Mixed inhibition model
[10] = read-out: Ki, Non-Competitive inhibition model
[11] = read-out: Ki, Uncompetitive inhibition model

Molecule: O=[N+]([O-])c1ccc(OP(=O)(O)Oc2ccc([N+](=O)[O-])cc2)cc1 [BNP, bis(4-nitrophenyl)-phosphate]
Ki [1, 8]: 1.67 µM
Ki [1, 9]: 1.66 µM
Ki [1, 10]: 5.17 µM
Ki [1, 11]: 3.02 µM
Ki [2, 8]: 0.044 µM
Ki [2, 9]: 0.044 µM
Ki [2, 10]: 0.17 µM
Ki [2, 11]: 0.096 µM

Molecule: CC(C)OC(=O)C(C)(C)Oc1ccc(C(=O)c2ccc(Cl)cc2)cc1 [Fenofibrate]
Km at 10 min [3]: 5.4 µM
enhancement of PGC-1α expression ([4]; fenofibrate 10 and 20 μM): 1.5 fold
reduction of LPS-induced IL-1β expression ([4]; fenofibrate overnight (5, 10, 20 μM tested; concentration not stated), then LPS 1 hour): 55%
reduction of LPS-induced IL-1β expression ([5]; 20 μM, 18 hours): 80% and 70%
increase of PGC-1α expression ([5]; 20 μM, 18 hours, then LPS 1 hour): 2 fold
reduction of LPS-induced IL-1β expression [6]: 60%

Ki [1, 8]: 110 µM
Ki [1, 10]: 235 µM
Ki [1, 11]: 131 µM
Ki [2, 8]: 36.2 µM
Ki [2, 9]: 101 µM
Ki [2, 10]: 101 µM
Ki [2, 11]: 64.7 µM
Molecule: O=c1c(O)c(-c2ccc(O)cc2)oc2cc(O)cc(O)c12 [Kaempferol, 3,5,7-trihydroxy-2-(4-hydroxyphenyl)-4H-1-benzopyran-4-one]
reduction of LPS-induced IL-1β expression ([5]; 10 μM, 18 hours): 60%
reduction of LPS-induced IL-1β expression ([5]; 20 μM, 18 hours): 85%
effect on PGC-1α expression ([5]; kaempferol alone 10, 20 μM): did not enhance PGC-1α expression

B1: recombinant hCES1b (Homo sapiens) (protein)
chain: T1 sequence (P23141 18-567)
Km [7]: 6.04 µM
Vmax [7]: 0.0283 µmol/min/mg
